According to patent US8153560B2, “Pesticidal active mixtures comprising aminothiazoline compounds” (BASF SE, priority 2007, dated 2012):

Assays:
[1] = system: vetch aphid (Megoura viciae); test: Test B.1: control of vetch aphid on broad bean leaf disks, contact or systemic; type: in vivo
Method: For evaluating control of vetch aphid (Megoura viciae) through contact or systemic means the test unit consisted of 24-well-microtiter plates containing broad bean leaf disks.
The compounds or mixtures were formulated using a solution containing 75 wt % water and 25 wt % DMSO. Different concentrations of formulated compounds or mixtures were sprayed onto the leaf disks at 2.5 μl, using a custom built micro atomizer, at two replications.
(§1) For experimental mixtures in these tests identical volumes of both mixing partners at the desired concentrations respectively, were mixed together.
After application, the leaf disks were air-dried and 5-8 adult aphids placed on the leaf disks inside the microtiter plate wells. The aphids were then allowed to suck on the treated leaf disks and incubated at 23±1° C., 50±5% RH (relative humidity) for 5 days. Aphid mortality and fecundity was then visually assessed.

[2] = system: green peach aphid (Myzus persicae); test: Test B.2: control of green peach aphid through systemic means, artificial diet under membrane; type: in vivo
Excerpt: For evaluating control of green peach aphid (Myzus persicae) through systemic means the test unit consisted of 96-well-microtiter plates containing liquid artificial diet under an artificial membrane.
The compounds or mixtures were formulated using a solution containing 75 wt % water and 25 wt % DMSO. Different concentrations of formulated compounds or mixtures were pipetted into the aphid diet, using a custom built pipetter, at two replications.
as §1
After application, 5-8 adult aphids were placed on the artificial membrane inside the microtiter plate wells. The aphids were then allowed to suck on the treated aphid diet and incubated at 23±1° C., 50±5% RH for 3 days. Aphid mortality and fecundity was then visually assessed.

[3] = mixing partner alone, ppm 0.08 + 0, 5 days
[4] = mixing partner alone, ppm 0.08 + 0, 3 days
[5] = mixing partner alone, ppm 40 + 0, 3 days
[6] = mixing partner alone, ppm 0.4 + 0, 3 days

Molecule: abamectin
- Average Control % [1, 3]: 0%
- Average Control % [2, 4]: 0%

Molecule: CC1=NNC(=O)N(/N=C/c2cccnc2)C1 [Pymetrozine, pymetrozine]
- Average Control % [2, 5]: 50%

Molecule: Cc1cc(C)cc(CC(NC2=NCCS2)c2cccc(C)c2C)c1 (stereo not drawn) [C.33, (4,5-Dihydro-thiazol-2-yl)-[2-(3,5-dimethyl-phenyl)-1-(2,3-dimethyl-phenyl)-ethyl]-amine]
- Average Control % ([1]; compound C.33 alone, ppm 0 + 0.8, 5 days): 0%
- Average Control % ([2]; compound C.33 alone, ppm 0 + 0.8, 3 days): 0%
- Average Control % ([2]; compound C.33 alone, ppm 0 + 4, 3 days): 0%
- Average Control % ([2]; compound C.33 alone, ppm 0 + 20, 3 days): 0%
- Average Control % ([2]; compound C.33 alone, ppm 0 + 20, 3 days, listed as test compound): 50%

Molecule: CN1COCN(Cc2cnc(Cl)s2)/C1=N\[N+](=O)[O-] [Thiamethoxam, thiamethoxam]
- Average Control % [1, 3]: 0%
- Average Control % [2, 4]: 0%

Molecule: CC(C)(C)c1ccc(CSc2cnn(C(C)(C)C)c(=O)c2Cl)cc1 [Pyridaben, pyridaben]
- Average Control % [2, 5]: 0%

Molecule: CC1(C)C(C=C(Cl)Cl)C1C(=O)OC(C#N)c1cccc(Oc2ccccc2)c1 (stereo not drawn) [Alphacypermethrin, alpha-cypermethrin]
- Average Control % ([2]; mixing partner alone, ppm 10 + 0, 3 days): 50%

Molecule: CNC(=O)c1cc(Cl)cc(C)c1NC(=O)c1cc(Br)nn1-c1ncccc1Cl [Chlorantraniliprole, chlorantraniliprole]
- Average Control % [2, 6]: 50%

Molecule: N#Cc1nn(-c2c(Cl)cc(C(F)(F)F)cc2Cl)c(N)c1[S+]([O-])C(F)(F)F (stereo not drawn) [Fipronil, fipronil]
- Average Control % ([1]; mixing partner alone, ppm 2 + 0, 5 days): 25%
- Average Control % [2, 6]: 0%
